“And” between values parts separate entries of the source, which are not always exact repeats. Equal values may be shown once.

Assay [1] has as its system totally blind patients with Non-24. Conditions: cited from earlier work.
Assay [2] deals with individuals diagnosed with DSWPD and having at least one copy of the rs184039278 CRY1 allele. Kind of assay: Sleep parameters after 20 mg tasimelteon before bedtime, by rs184039278 CRY1 genotype. The assay is classed as in vivo, human. Here is the method: In a study of genetic variations associated with sleep-wake patterns, Applicant found a significant association between the rs184039278 CRY1 allele and efficacy of treatment with tasimelteon. […] Both groups were treated with 20 mg of tasimelteon before bed.

Setting [3] is: individual DSWPD patients, rs184039278 CRY1 G/T, 20 mg tasimelteon prior to bedtime.

On to `CCC(=O)NC[C@@H]1C[C@H]1c1cccc2c1CCO2` [tasimelteon, Tasimelteon], for which, in assay [1], the “efficacy on circadian timing system and sleep” value was “phase advance the circadian timing system (CTS) and to improve nighttime sleep and decrease daytime sleep”. The “total sleep time (TST), WT versus MT individuals (FIG. 1)” value in assay [2] (WT (no rs184039278 CRY1 allele) compared to MT (at least one copy), both 20 mg tasimelteon before bed) was “both lower and more variable than for MT individuals”. In assay [2] (setting [3]), the “Total Sleep Time In First Two-Thirds Of Night” value was 308 min and 293.5 min; the “percentage of total sleep time (sleep efficiency)” value was 96 and 91. For the same compound, the “sleep parameters (LPS, sleep efficiency, REM sleep duration, TST, WASO)” value in assay [2] (individuals having at least one copy of the rs184039278 CRY1 allele, tasimelteon before bedtime) was “improvements in one or more sleep parameters”.

(Values after patent US20260000637A1, “METHOD OF IMPROVING SLEEP” (VANDA PHARMACEUTICALS INC., priority 2019, published 2026).)
